Assays:
GST-tagged THRα LBD = molecular target: T1, GST-tagged THRα LBD (Homo sapiens, UniProt P10827); assay: TR-FRET thyroid hormone receptor coactivator assay, THRα; format: biochemical; conditions: read-out: THRα EC50 Mean ± SEM
T1 construct: purchased Invitrogen
Description: A time-resolved FRET (TR-FRET)-based, biochemical assay was used as an initial screen to assess the ability of compounds to bind either THRα or β in vitro. […] Upon excitation of the terbium-labeled anti-GST antibody, energy is transferred to the fluorescein-labeled coactivator peptide and is detected as emission at 520 nm.
The assay procedure is based on the manufacturer’s protocol for LanthaScreen™ TR-FRET Thyroid Receptor beta Coactivator Assay (Invitrogen, PV4686) with slight, optimized modifications. Briefly, the assay was performed in 384-well, black microplate plates, protected from light. Test compounds were serially diluted in DMSO (1.0% final DMSO concentration) and added to the test plate. […]
In the TR-FRET thyroid hormone receptor coactivator assay, increasing concentrations of each compound was combined with the GST-tagged LBD of THRα or β, a coactivator peptide, and terbium-labeled anti-GST antibody. TR-FRET was then measured and dose-response curves were generated. […] Luminescence was measured and dose-response curves were generated. For both assays, calculated EC50 means ± SEM, n, and THRα EC50-to-THRβ EC50 ratios (α:β) are reported for each compound-THR subtype combination.

[1] = molecular target: T2, THRα (in complex with RXR) (Homo sapiens, UniProt P10827); assay: Luciferase reporter assay in HEK293T cells, THRα; format: cell-based; conditions: read-out: THRα EC50 Mean ± SEM
T2 construct: expressed in transfected cells; host or cells: HEK293T
T2 sequence (P10827 1-410 isoform P10827-2): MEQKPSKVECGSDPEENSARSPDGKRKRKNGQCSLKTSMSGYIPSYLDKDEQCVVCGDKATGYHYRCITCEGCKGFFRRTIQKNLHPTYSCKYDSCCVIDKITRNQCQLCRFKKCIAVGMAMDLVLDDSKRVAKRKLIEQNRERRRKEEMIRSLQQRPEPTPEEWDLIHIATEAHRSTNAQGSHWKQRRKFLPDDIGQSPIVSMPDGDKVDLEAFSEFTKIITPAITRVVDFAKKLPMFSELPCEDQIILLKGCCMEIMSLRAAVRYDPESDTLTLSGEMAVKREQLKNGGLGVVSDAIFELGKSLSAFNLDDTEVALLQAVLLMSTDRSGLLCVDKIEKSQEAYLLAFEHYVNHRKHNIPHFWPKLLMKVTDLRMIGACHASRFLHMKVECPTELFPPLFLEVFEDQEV
T2 sequence (P19793 1-462 partner): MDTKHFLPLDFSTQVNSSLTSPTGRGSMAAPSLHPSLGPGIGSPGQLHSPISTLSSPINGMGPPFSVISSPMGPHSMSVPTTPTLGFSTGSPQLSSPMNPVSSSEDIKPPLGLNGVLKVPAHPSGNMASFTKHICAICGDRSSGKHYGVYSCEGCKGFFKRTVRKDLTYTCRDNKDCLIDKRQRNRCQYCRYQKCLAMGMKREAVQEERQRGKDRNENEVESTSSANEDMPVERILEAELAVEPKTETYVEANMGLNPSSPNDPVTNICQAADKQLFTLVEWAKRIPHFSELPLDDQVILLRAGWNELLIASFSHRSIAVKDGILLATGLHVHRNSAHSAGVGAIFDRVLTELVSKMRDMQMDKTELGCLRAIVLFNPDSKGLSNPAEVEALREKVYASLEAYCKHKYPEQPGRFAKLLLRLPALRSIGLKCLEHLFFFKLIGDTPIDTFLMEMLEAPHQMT
Method: After initial characterization of in vitro THR-binding/activation, compounds were tested for their ability to bind and activate THRα or β (in complex with RXR), inducing gene expression, in cultured human-derived cells. To this end, HEK293T cells were transiently transfected with a firefly luciferase reporter under control of a TRE (TRE-Luc), a RXR expression plasmid, and either a THRα or β expression plasmid. This assay was performed at Pharmaron Beijing Co., Ltd. (China).
Cells were seeded into 6-well culture plates at 7.0 x 10^5 cells/well and cultured in Dulbecco’s Modified Eagle’s Medium (DMEM; Hyclone, SH30022) supplemented with 10% fetal bovine serum (FBS; Gibco, 16000–044) and 1% Penicillin-Streptomycin (P/S; Corning, 30-002-CI) at 37°C and 5% CO2. […] After overnight incubation, the transfected cells were re-seeded at 1.0 x 10^4 cells/well into 384-well microplates and incubated for an additional 5 to 6 hrs. Test compounds were serially diluted in DMSO and added to the cells (0.1% final DMSO concentration). After approximately 18 to 24 hrs, the culture plates were equilibrated to RT, 30 μL ONE-Glo reagent (Promega, E6120) was added to each well, and luminescence was measured on an EnSpire plate reader (Perkin Elmer). The results were then quantified by calculating percent agonism and dose-response curves were fitted by non-linear regression with variable slope. […]

| Structure (SMILES) | EC50 (GST-tagged THRα LBD) [µM] | EC50 [1] [µM] |
| --- | --- | --- |
| Cc1cc(OCP2(=O)OCC[C@@H](c3cccc(Cl)c3)O2)cc(C)c1Cc1ccc(O)c(C(C)C)c1 (stereo partly shown) [VK2809] | 0.253 ± 0.0407 | 0.0548 ± 0.0117 |
| Cc1cc(OCP(=O)(O)O)cc(C)c1Cc1ccc(O)c(C(C)C)c1 [VK2809A] | 0.0255 ± 0.007 | 0.297 ± 0.0414 |

From PMC7732128, “Regulation of gene transcription by thyroid hormone receptor β agonists in clinical development for the treatment of non-alcoholic steatohepatitis (NASH)” (PLoS ONE, 2020)
